{"source": "patent US9527847B2", "about": "“Treatment of lupus, fibrotic conditions, and inflammatory myopathies and other disorders using PI3 kinase inhibitors” (INFINITY PHARMACEUTICALS, INC., priority 2012, dated 2016)", "tested_on": "NZBWF1/J mice", "assay": "Murine NZB/W F1 lupus model", "format": "in vivo, mouse", "conditions": "vs vehicle; for Glomerulonephritis score reduction: kidney histopathology; for Plasma anti-dsDNA IgG levels: days 49, 98, 140 (age 30, 37, 43 wk)", "from_the_text": "Female NZBWF1/J mice (n=60) that were 8 weeks old on arrival and weighed approximately 35-51 grams (mean 42 g) at enrollment (mouse age approx. 23 weeks) were obtained from The Jackson Laboratory, Bar Harbor, Me. (stock number 100008). Animals were identified by a distinct number of ink marks at the base of the tail delineating animal number. After enrollment, all cages were labeled with protocol number, group number, and animal numbers.\nMice were terminated at age 43 weeks (day 140).\nAll dose solutions were prepared to deliver in 10 ml/kg (0.3 ml/30 g mouse).\nBody weights were measured and recorded prior to study initiation for randomization, on the first day of dosing prior to dosing, and weekly throughout the study. Body weights were also recorded at scheduled termination points and as needed if test subjects appeared to decrease in weight by visual inspection. The animals were observed daily for significant clinical signs, morbidity and mortality.\nUrine from each animal was tested weekly (beginning at mouse age 23 weeks) for proteinuria using Clinitech Multistick test strips (Bayer).\nAt necropsy, animals were anesthetized with isoflorane and bled via cardiac puncture for serum (for clinical chemistry analysis) and plasma (for Anti-dsDNA ELISA and PK). Terminal urine was collected and assessed. Spleens and kidneys (paired) were collected, weighed, and placed in 10% NBF. Serum obtained at necropsy was sent to Antech Diagnostics for analysis. Terminal plasma samples were split with half being used for Anti-dsDNA ELISA and the other half being shipped to the sponsor.\nAnti-dsDNA IgG analysis was performed on days 0, 49, 98, and 140 (mouse age 23, 30, 37, and 43 weeks). Anti-dsDNA IgG levels were determined using an Anti-dsDNA IgG ELISA Kit (Alpha Diagnostic, kit #5120, lot #90903K4) following manufacturer's instructions.\nBlood samples for clinical chemistry evaluation were collected at termination via cardiac puncture from Isoflurane anesthetized animals into serum separator microtainer tubes. Serum was sent to Antech Diagnostics for analysis.\nThe following parameters were measured: Albumin (ALB), Albumin: Globulin ratio (A/G), Alkaline phosphatase (ALK), Alanine aminotransferase (ALT), Aspartate aminotransferase (AST), Calcium (CA), Magnesium (Mg), Phosphorous (P), Globulin (GLOB), Electrolytes (Sodium (Na), Potassium (K), Chloride (Cl)), Gamma glutamyltransferase (GGT), Total bilirubin (TBILI), Amylase (AMY), Lipase (LIP), Osmolality, Triglycerides (TRIG), Total cholesterol (CHOL), Urea nitrogen (BUN), Creatinine (CREAT), Glucose (GLU), Total protein (TP), and Creatinine kinase (CPK).\nHistopathologic evaluation was performed on kidneys. Kidneys from all surviving animals were examined microscopically by a board certified veterinary pathologist and observations were entered into a computer-assisted data retrieval system. Kidney sections were stained with Masson's Trichrome, or Hematoxylin and Eosin. To maintain blinding of the analysis, slides were labeled with the animal number with no reference to treatment group.\nKidneys were scored according to the following system (developed by Chan O, Madaio M P, Shlomchik M J. The roles of B cells in MRL/lpr murine lupus. Annals New York Academy of Sciences, 1997; 815:75-82), modified to suit the lesion severity.\n• 0=Normal. • 1=Focal or multifocal, minimal to mild, early proliferative. • 2=Multifocal mild to moderate or mild diffuse proliferative. • 3=Diffuse moderate proliferative with or without multifocal severe areas. • 4=Marked diffuse proliferative, with crescents/sclerosis, multifocal protein casts present. • 5=Severe diffuse proliferative, with crescents/sclerosis, diffuse protein casts present. […]", "key": {"[1]": {"conditions": "serum at termination, Compound 292 (1, 5, 10 mg/kg), Dex 2 mg/kg"}}}
{"smiles": "C[C@H](Nc1ncnc2[nH]cnc12)c1cc2cccc(Cl)c2c(=O)n1-c1ccccc1", "note": "[Compound 292]", "values": [{"measurement": "Glomerulonephritis score reduction", "setting": "1 mg/kg PO QD", "value": 68, "unit": "%"}, {"measurement": "Urine protein levels", "setting": "1 mg/kg PO QD, p<0.05 at mouse age 43 wk", "value": "significantly reduced"}, {"measurement": "Perivascular inflammation score reduction", "setting": "1 mg/kg PO QD", "value": 79, "unit": "%"}, {"measurement": "Protein cast severity reduction", "setting": "1 mg/kg PO QD", "value": 100, "unit": "%"}, {"measurement": "Spleen weight reduction", "setting": "1 mg/kg PO QD", "value": 39, "unit": "%"}, {"measurement": "Summed histopathology scores reduction", "setting": "1 mg/kg PO QD", "value": 67, "unit": "%"}, {"measurement": "Plasma anti-dsDNA IgG levels", "setting": "5 mg/kg PO QD", "value": "significantly reduced"}, {"measurement": "Glomerulonephritis score reduction", "setting": "5 mg/kg PO QD", "value": 89, "unit": "%"}, {"measurement": "Urine protein levels", "setting": "5 mg/kg PO QD, p<0.05 at mouse age 43 wk", "value": "significantly reduced"}, {"measurement": "Interstitial nephritis score reduction", "setting": "5 mg/kg PO QD", "value": 54, "unit": "%"}, {"measurement": "Perivascular inflammation score reduction", "setting": "5 mg/kg PO QD", "value": 90, "unit": "%"}, {"measurement": "Protein cast severity reduction", "setting": "5 mg/kg PO QD", "value": 100, "unit": "%"}, {"measurement": "Spleen weight reduction", "setting": "5 mg/kg PO QD", "value": 54, "unit": "%"}, {"measurement": "Summed histopathology scores reduction", "setting": "5 mg/kg PO QD", "value": 81, "unit": "%"}, {"measurement": "Plasma anti-dsDNA IgG levels", "setting": "10 mg/kg PO QD", "value": "significantly reduced"}, {"measurement": "Glomerulonephritis score reduction", "setting": "10 mg/kg PO QD", "value": 100, "unit": "%"}, {"measurement": "Urine protein levels", "setting": "10 mg/kg PO QD, p<0.05 at mouse age 42-43 wk", "value": "significantly reduced"}, {"measurement": "Interstitial nephritis score reduction", "setting": "10 mg/kg PO QD", "value": 67, "unit": "%"}, {"measurement": "Perivascular inflammation score reduction", "setting": "10 mg/kg PO QD", "value": 100, "unit": "%"}, {"measurement": "Protein cast severity reduction", "setting": "10 mg/kg PO QD", "value": 100, "unit": "%"}, {"measurement": "Spleen weight reduction", "setting": "10 mg/kg PO QD", "value": 55, "unit": "%"}, {"measurement": "Summed histopathology scores reduction", "setting": "10 mg/kg PO QD", "value": 91, "unit": "%"}, {"measurement": "Body weight loss (percent change from baseline)", "setting": "1, 5 or 10 mg/kg PO QD 20 wk, over time", "value": "did not differ significantly"}, {"measurement": "Kidney weight", "setting": "1, 5 or 10 mg/kg PO QD", "value": "did not differ significantly"}, {"measurement": "% of animals with proteinuria (urine protein levels >300 mg/dl)", "setting": "all doses (1, 5, or 10 mg/kg), animal age 43 weeks", "value": "significantly reduced"}, {"measurement": "Sodium (Na)", "setting": "serum at termination, Compound 292 1 mg/kg", "value": "significantly increased"}, {"measurement": "Amylase (AMY)", "setting": "serum at termination, Compound 292 5 mg/kg, Dex 2 mg/kg", "value": "significantly reduced"}, {"measurement": "Magnesium (Mg)", "setting": "serum at termination, Compound 292 10 mg/kg, Dex 2 mg/kg", "value": "significantly increased"}, {"measurement": "Aspartate aminotransferase (AST)", "setting": "serum at termination, Compound 292 (1, 5, 10 mg/kg)", "value": "significantly reduced"}, {"measurement": "Albumin (ALB)", "setting": "[1]", "value": "significantly increased"}, {"measurement": "Blood urea nitrogen (BUN)", "setting": "[1]", "value": "significantly reduced"}, {"measurement": "Calcium (CA)", "setting": "[1]", "value": "significantly increased"}, {"measurement": "Creatine kinase (CPK)", "setting": "[1]", "value": "significantly reduced"}, {"measurement": "Globulin (GLOB)", "setting": "[1]", "value": "significantly reduced"}, {"measurement": "Triglycerides (TRIG)", "setting": "[1]", "value": "significantly reduced"}]}
